# Laboratory results published in patent US20240158446A1, “CYCLIC COMPOUND HAVING SELECTIVE INHIBITORY ACTION ON KRAS OVER HRAS AND NRAS” (CHUGAI SEIYAKU KABUSHIKI KAISHA, priority 2021, published 2024).
# How the values were obtained:
# [1] = biological target: GDP-bound HRAS wild-type protein (Homo sapiens, UniProt P01112); experiment: Binding to HRAS by surface plasmon resonance (SPR), Single Cycle Kinetics; details: SPR, GDP-bound HRAS wild-type protein vs GDP-bound KRAS wild-type protein
# [2] = biological target: GDP-bound NRAS wild-type protein (Homo sapiens, UniProt P01111); experiment: Binding to NRAS by surface plasmon resonance (SPR), Single Cycle Kinetics; details: SPR, GDP-bound NRAS wild-type protein vs GDP-bound KRAS wild-type protein
# GDP-bound NRAS wild-type protein, sequence (P01111 whole entry): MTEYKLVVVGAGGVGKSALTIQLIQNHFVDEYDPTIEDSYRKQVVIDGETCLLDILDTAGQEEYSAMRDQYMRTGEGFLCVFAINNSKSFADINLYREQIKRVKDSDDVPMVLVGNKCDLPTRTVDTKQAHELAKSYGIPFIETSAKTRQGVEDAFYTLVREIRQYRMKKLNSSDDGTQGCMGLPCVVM
# [3] = biological target: GDP-bound KRAS wild-type protein (Homo sapiens, UniProt P01116); experiment: Binding to KRAS by surface plasmon resonance (SPR), Single Cycle Kinetics; details: SPR, Single Cycle Kinetics, GDP-bound KRAS wild-type protein; read-out: KRAS KD
# GDP-bound KRAS wild-type protein, sequence (P01116 whole entry): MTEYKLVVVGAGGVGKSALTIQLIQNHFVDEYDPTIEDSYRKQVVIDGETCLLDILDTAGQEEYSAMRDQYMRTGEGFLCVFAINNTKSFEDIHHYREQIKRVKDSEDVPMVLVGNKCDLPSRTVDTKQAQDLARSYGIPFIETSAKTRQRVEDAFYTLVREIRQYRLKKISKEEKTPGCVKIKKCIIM
# GDP-bound HRAS wild-type protein, sequence (P01112 whole entry): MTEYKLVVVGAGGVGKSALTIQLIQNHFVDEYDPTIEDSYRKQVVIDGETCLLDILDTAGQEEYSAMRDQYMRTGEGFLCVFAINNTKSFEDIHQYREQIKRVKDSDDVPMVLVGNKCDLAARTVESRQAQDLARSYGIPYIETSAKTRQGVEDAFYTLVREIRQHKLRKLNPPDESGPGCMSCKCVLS
Structure (SMILES),HRAS/KRAS (ratio of KD value for HRAS to KD value for KRAS) [1],NRAS/KRAS (ratio of KD value for NRAS to KD value for KRAS) [2],Kd [3] [nM]
CCO[C@@H]1C[C@H]2C(=O)NC3(CC(C)(C)C3)C(=O)N(C)[C@@H](C(CC)CC)C(=O)N(C)[C@H](C(=O)N3CCCC3)CC(=O)N(C)[C@@H](C)C(=O)N[C@@H]([C@@H](C)CC)C(=O)N(C)CC(=O)N(C)[C@H]3C/C=C\CCN(C3=O)[C@@H](Cc3ccc(C(F)(F)F)cc3)C(=O)N(C)CC(=O)N[C@@H](CCc3ccc(C(F)(F)F)c(OC)c3)C(=O)N2C1 [PP2163],A (a compound having 10 or more and less than 20 is denoted as A),A (a compound having 10 or more and less than 20 is denoted as A),0.41
CCO[C@@H]1C[C@H]2C(=O)NC3(CC(C)(C)C3)C(=O)N(C)[C@@H](C(CC)CC)C(=O)N(C)[C@H](C(=O)N(C)C)CC(=O)N(C)[C@@H](CC3CCC3)C(=O)N[C@@H]([C@@H](C)CC)C(=O)N(C)CC(=O)N(C)[C@H]3C/C=C\CCN(C3=O)[C@@H](Cc3ccc(C(F)(F)F)cc3)C(=O)N(C)CC(=O)N[C@@H](CCc3ccc(C(F)(F)F)c(OC)c3)C(=O)N2C1 [PP2164],A (a compound having 10 or more and less than 20 is denoted as A),A (a compound having 10 or more and less than 20 is denoted as A),0.29
CCO[C@@H]1C[C@H]2C(=O)NC3(CC(C)(C)C3)C(=O)N(C)[C@@H](C(CC)CC)C(=O)N(C)[C@H](C(=O)N(C)C)CC(=O)N(C)[C@@H](C(C)C)C(=O)N[C@@H]([C@@H](C)CC)C(=O)N(C)CC(=O)N(C)[C@H]3C/C=C\CCN(C3=O)[C@@H](Cc3ccc(C(F)(F)F)cc3)C(=O)N(C)CC(=O)N[C@@H](CCc3ccc(C(F)(F)F)c(OC)c3)C(=O)N2C1 [PP2165],A (a compound having 10 or more and less than 20 is denoted as A),A (a compound having 10 or more and less than 20 is denoted as A),0.51
CCO[C@@H]1C[C@H]2C(=O)NC3(CC(C)(C)C3)C(=O)N(C)[C@@H](C(CC)CC)C(=O)N(C)[C@H](C(=O)N(C)C)CC(=O)N(C)[C@@H](CC3CC3)C(=O)N[C@@H]([C@@H](C)CC)C(=O)N(C)CC(=O)N(C)[C@H]3C/C=C\CCN(C3=O)[C@@H](Cc3ccc(C)cc3)C(=O)N(C)CC(=O)N[C@@H](CCc3ccc(C(F)(F)F)c(OC)c3)C(=O)N2C1 [PP2166],A (a compound having 10 or more and less than 20 is denoted as A),A (a compound having 10 or more and less than 20 is denoted as A),0.29
CCO[C@@H]1C[C@H]2C(=O)NC3(CC(C)(C)C3)C(=O)N(C)[C@@H](C(CC)CC)C(=O)N(C)[C@H](C(=O)N3CCCC3)CC(=O)N(C)[C@@H](COC)C(=O)N[C@@H]([C@@H](C)CC)C(=O)N(C)CC(=O)N(C)[C@H]3C/C=C\CCN(C3=O)[C@@H](Cc3ccc(C)cc3)C(=O)N(C)CC(=O)N[C@@H](CCc3ccc(C(F)(F)F)c(OC)c3)C(=O)N2C1 [PP2167],A (a compound having 10 or more and less than 20 is denoted as A),AA (a compound having 20 or more is denoted as AA),0.71
CCO[C@@H]1C[C@H]2C(=O)NC3(CC(C)(C)C3)C(=O)N(C)[C@@H](C(CC)CC)C(=O)N(C)[C@H](C(=O)N(C)C)CC(=O)N(C)[C@@H](CC(C)C)C(=O)N[C@@H]([C@@H](C)CC)C(=O)N(C)CC(=O)N(C)[C@H]3C/C=C\CCN(C3=O)[C@@H](Cc3ccc(C)cc3)C(=O)N(C)CC(=O)N[C@@H](CCc3ccc(C(F)(F)F)c(OC)c3)C(=O)N2C1 [PP2168],A (a compound having 10 or more and less than 20 is denoted as A),A (a compound having 10 or more and less than 20 is denoted as A),0.33
CCO[C@@H]1C[C@H]2C(=O)NC3(CC(C)(C)C3)C(=O)N(C)[C@@H](C(CC)CC)C(=O)N(C)[C@H](C(=O)N3CCCC3)CC(=O)N(C)[C@@H](C)C(=O)N[C@@H]([C@@H](C)CC)C(=O)N(C)CC(=O)N(C)[C@H]3C/C=C\CCN(C3=O)[C@@H](Cc3ccc(C)cc3)C(=O)N(C)CC(=O)N[C@@H](CCc3ccc(C(F)(F)F)c(OC)c3)C(=O)N2C1 [PP2169],A (a compound having 10 or more and less than 20 is denoted as A),AA (a compound having 20 or more is denoted as AA),0.63
CCO[C@@H]1C[C@H]2C(=O)NC3(CC(C)(C)C3)C(=O)N(C)[C@@H](C(CC)CC)C(=O)N(C)[C@H](C(=O)N(C)C)CC(=O)N(C)[C@@H](CC)C(=O)N[C@@H]([C@@H](C)CC)C(=O)N(C)CC(=O)N(C)[C@H]3C/C=C\CCN(C3=O)[C@@H](Cc3ccc(C)cc3)C(=O)N(C)CC(=O)N[C@@H](CCc3ccc(C(F)(F)F)c(OC)c3)C(=O)N2C1 [PP2170],A (a compound having 10 or more and less than 20 is denoted as A),A (a compound having 10 or more and less than 20 is denoted as A),0.33
CCO[C@@H]1C[C@H]2C(=O)NC3(CC(C)(C)C3)C(=O)N(C)[C@@H](C(CC)CC)C(=O)N(C)[C@H](C(=O)N3CCCC3)CC(=O)N(C)[C@@H](CC)C(=O)N[C@@H]([C@@H](C)CC)C(=O)N(C)CC(=O)N(C)[C@H]3C/C=C\CCN(C3=O)[C@@H](Cc3ccc(C)cc3)C(=O)N(C)CC(=O)N[C@@H](CCc3ccc(C(F)(F)F)c(OC)c3)C(=O)N2C1 [PP2171],A (a compound having 10 or more and less than 20 is denoted as A),A (a compound having 10 or more and less than 20 is denoted as A),0.75
CCO[C@@H]1C[C@H]2C(=O)NC3(CC(C)(C)C3)C(=O)N(C)[C@@H](C(CC)CC)C(=O)N(C)[C@H](C(=O)N(C)C)CC(=O)N(C)[C@@H](CC3CCC3)C(=O)N[C@@H]([C@@H](C)CC)C(=O)N(C)CC(=O)N(C)[C@H]3C/C=C\CCN(C3=O)[C@@H](Cc3ccc(C)cc3)C(=O)N(C)CC(=O)N[C@@H](CCc3ccc(C(F)(F)F)c(OC)c3)C(=O)N2C1 [PP2172],B (a compound having 3 or more and less than 10 is denoted as B),A (a compound having 10 or more and less than 20 is denoted as A),0.51
CCO[C@@H]1C[C@H]2C(=O)NC3(CC(C)(C)C3)C(=O)N(C)[C@@H](C(CC)CC)C(=O)N(C)[C@H](C(=O)N(C)C)CC(=O)N(C)[C@@H](C(C)C)C(=O)N[C@@H]([C@@H](C)CC)C(=O)N(C)CC(=O)N(C)[C@H]3C/C=C\CCN(C3=O)[C@@H](Cc3ccc(C)cc3)C(=O)N(C)CC(=O)N[C@@H](CCc3ccc(C(F)(F)F)c(OC)c3)C(=O)N2C1 [PP2173],A (a compound having 10 or more and less than 20 is denoted as A),A (a compound having 10 or more and less than 20 is denoted as A),0.55
CCO[C@@H]1C[C@H]2C(=O)NC3(CC(C)(C)C3)C(=O)N(C)[C@@H](C(CC)CC)C(=O)N(C)[C@H](C(=O)N3CCCC3)CC(=O)N(C)[C@@H](COC)C(=O)N[C@@H]([C@@H](C)CC)C(=O)N(C)CC(=O)N(C)[C@H]3C/C=C\CCN(C3=O)[C@@H](Cc3ccc(C(F)(F)F)cc3)C(=O)N(C)CC(=O)N[C@@H](CCc3ccc(Cl)c(Cl)c3)C(=O)N2C1 [PP2174],A (a compound having 10 or more and less than 20 is denoted as A),AA (a compound having 20 or more is denoted as AA),0.4
CCO[C@@H]1C[C@H]2C(=O)NC3(CC(C)(C)C3)C(=O)N(C)[C@@H](C(CC)CC)C(=O)N(C)[C@H](C(=O)N(C)C)CC(=O)N(C)[C@@H](CC(C)C)C(=O)N[C@@H]([C@@H](C)CC)C(=O)N(C)CC(=O)N(C)[C@H]3C/C=C\CCN(C3=O)[C@@H](Cc3ccc(C(F)(F)F)cc3)C(=O)N(C)CC(=O)N[C@@H](CCc3ccc(Cl)c(Cl)c3)C(=O)N2C1 [PP2176],A (a compound having 10 or more and less than 20 is denoted as A),AA (a compound having 20 or more is denoted as AA),0.47
CCO[C@@H]1C[C@H]2C(=O)NC3(CC(C)(C)C3)C(=O)N(C)[C@@H](C(CC)CC)C(=O)N(C)[C@H](C(=O)N3CCCC3)CC(=O)N(C)[C@@H](C)C(=O)N[C@@H]([C@@H](C)CC)C(=O)N(C)CC(=O)N(C)[C@H]3C/C=C\CCN(C3=O)[C@@H](Cc3ccc(C(F)(F)F)cc3)C(=O)N(C)CC(=O)N[C@@H](CCc3ccc(Cl)c(Cl)c3)C(=O)N2C1 [PP2178],A (a compound having 10 or more and less than 20 is denoted as A),AA (a compound having 20 or more is denoted as AA),0.49
CCO[C@@H]1C[C@H]2C(=O)NC3(CC(C)(C)C3)C(=O)N(C)[C@@H](C(CC)CC)C(=O)N(C)[C@H](C(=O)N(C)C)CC(=O)N(C)[C@@H](CC3CCC3)C(=O)N[C@@H]([C@@H](C)CC)C(=O)N(C)CC(=O)N(C)[C@H]3C/C=C\CCN(C3=O)[C@@H](Cc3ccc(C(F)(F)F)cc3)C(=O)N(C)CC(=O)N[C@@H](CCc3ccc(Cl)c(Cl)c3)C(=O)N2C1 [PP2180],A (a compound having 10 or more and less than 20 is denoted as A),AA (a compound having 20 or more is denoted as AA),0.66
CCO[C@@H]1C[C@H]2C(=O)NC3(CC(C)(C)C3)C(=O)N(C)[C@@H](C(CC)CC)C(=O)N(C)[C@H](C(=O)N(C)C)CC(=O)N(C)[C@@H](C(C)C)C(=O)N[C@@H]([C@@H](C)CC)C(=O)N(C)CC(=O)N(C)[C@H]3C/C=C\CCN(C3=O)[C@@H](Cc3ccc(C(F)(F)F)cc3)C(=O)N(C)CC(=O)N[C@@H](CCc3ccc(Cl)c(Cl)c3)C(=O)N2C1 [PP2181],A (a compound having 10 or more and less than 20 is denoted as A),AA (a compound having 20 or more is denoted as AA),1.4
